# From patent publication US12371459B2, “Antimicrobial peptide derived from Pseudin-2 peptide and uses thereof” (INDUSTRY-ACADEMIC COOPERATION FOUNDATION, CHOSUN UNIVERSITY, priority 2019, dated 2025)
# Ends that are not written are not given here.
# Experiments:
# S. aureus (CCARM 3090) = conditions: 24 hours at 37° C.
# E. coli (ATCC 25922) = conditions: 24 hours at 37° C.
# E. coli (CCARM 1238) = conditions: 24 hours at 37° C.
# P. aeruginosa 4007 = conditions: P. aeruginosa 4007, 24 hours at 37° C.
# S. aureus (ATCC 25923) = conditions: 24 hours at 37° C.
# E. coli (CCARM 1229) = conditions: 24 hours at 37° C.
# S. aureus (CCARM 3518) = conditions: 24 hours at 37° C.
# [1] = system: P. aeruginosa (ATCC 27853); conditions: 24 hours at 37° C.
# P. aeruginosa 4891 = conditions: P. aeruginosa 4891, 24 hours at 37° C.
# plasmid DNA (pRSETB) = assay: Binding between antimicrobial peptide and DNA (agarose gel electrophoresis); conditions: plasmid DNA 300 ng, peptide/DNA ratio 0.25:1 to 4:1, 10 minutes at 37° C.
# Protocol: Specifically, plasmid DNA (pRSETB, 300 ng) and the peptide were reacted for at different ratio (i.e., peptide/DNA ratio was 0 (DNA only), 0.25:1, 0.5:1, 1:1, 1.5:1, 2:1, 3:1, or 4:1) for 10 minutes at 37° C. After that, electrophoresis was carried out using 1% agarose gel followed by staining with ethidium bromide (EtBr) and UV determination.
# Staphylococcus aureus [2] = assay: Scanning electron microscopy (SEM), membrane damage; format: cell-based; conditions: peptide at MIC, 1 hour at 37° C.
# Protocol: (§1) As a control, cells applied with no peptide were used. After the culture, the cells were collected, and, by using 2.5% glutaraldehyde, the bacterial cells were treated for 18 hour at 4° C. After carrying out washing two times with PBS buffer solution, the fixed cells were dehydrated in stepwise manner by using 100% ethanol and diluted ethanol (50%, 70%, 90% and 100%). After the dehydration followed by drying, the specimen was coated with platinum and determination was made by low vacuum scanning electron microscopy.
# Escherichia coli [3] = assay: as above; format: cell-based; conditions: peptide at MIC, 1 hour at 37° C.
# Protocol: as §1
# Staphylococcus aureus [4] = assay: Flow cytometry, propidium iodide, effect on bacteria membrane; format: cell-based; conditions: peptide at MIC
# Protocol: (§2) After that, the supernatant was removed by centrifuge (10,000 rpm) and stained with propidium iodide (PI, concentration of 10 μg/ml) for 30 minutes at 4° C. Thereafter, unbound propidium iodide was removed by centrifuge, and the problem of cell aggregation phenomenon was solved by adding physiological saline (PBS) in an amount of 1 ml.
# Escherichia coli [5] = assay: as above; format: cell-based; conditions: peptide at MIC
# Protocol: as §2
# [6] = system: erythrocytes of a mouse (Balb/c); assay: Erythrocyte hemolytic activity; conditions: 1 hour at 37° C.
# Protocol: To compare the cytotoxicity among the peptides that are produced by the method of Example 1, erythrocyte hemolytic activity of the synthesized peptide was measured.
# After that, the amount of hemoglobin contained in a supernatant collected by centrifuge at 1,000×g was determined by measuring the absorbance at a wavelength of 414 nm. As a control to be used as a reference for cell disruption level, the supernatant collected by a treatment with 1% Triton X-100 (Sigma, USA) and a reaction for 1 hour at 37° C. was used to measure the absorbance. By setting the resulting absorbance value at 100% of the erythrocyte hemolytic activity, hemolysis of each peptide was calculated using the following equation 1. Erythrocyte disrupting ability (%)=(Absorbance A−Absorbance B)/(Absorbance C−Absorbance B)×100 Equation 1 (in the above equation, Absorbance A indicates the absorbance of a reaction solution treated with each peptide, in which the absorbance is measured at a wavelength of 414 nm; Absorbance B indicates the absorbance of a reaction solution treated with PBS, in which the absorbance is measured at a wavelength of 414 nm; and Absorbance C indicates the absorbance of a reaction solution treated with 1% Triton X-100, in which the absorbance is measured at a wavelength of 414 nm).
# [7] = Cytotoxicity in normal cell line (MTT); conditions: human, HaCaT keratinocyte cells
# Protocol: (§3) To determine the cytotoxicity of the peptides produced by the method of Example 1 in normal cell line, cytotoxicity was measured by using human keratinocyte cell line (HaCaT cell line, Dr. N E. Fusenig, Heidelberg, Germany).
# (§4) Specifically, HaCaT cells, which have been cultured in DMEM medium containing 10% FBS (fetal bovine serum), were aliquoted in a microtiter plate to have 2×10^5 cells per well. […] Twenty-four hours later, a reaction solution containing 0.5 mg/ml MTT (thiazolyl blue tetrazolium bromide) dissolved in phosphate buffered saline (PBS) was added in an amount of 100 μl to each well and the reaction was allowed to occur for 4 hours. After that, the supernatant was discarded, and, by dissolving MTT crystals that are formed by adding 200 μl DMSO (dimethyl sulfoxide), the absorbance at 560 nm was measured to determine the cell survival ability.
# [8] = system: Candida albicans KCTC 7270; conditions: KCTC 7270, 18 h
# Description: (§5) To compare the antimicrobial activity among the peptides produced by the method of Example 1, the inventors of the present invention measured the minimal growth inhibitory concentration (MIC), which is minimum concentration of the peptide not allowing any […] of bacterial cells.
# (§6) Specifically, the bacterial strains described in the following Table 2 were purchased and cultured to a mid-log phase in a medium that is appropriate for each strain. […] After the addition to a plate, the cells were cultured for 18 hours at 37° C. […] As a control, Pseudin-2 as a mother peptide was used.
# [9] = system: Staphylococcus aureus CCARM 3090 (tolerance to antibiotics)
# Description: as §5, §6
# [10] = system: Staphylococcus aureus ATCC 25923; conditions: ATCC 25923, 18 h
# Description: as §5, §6
# [11] = system: Staphylococcus aureus CCARM 3518 (tolerance to antibiotics)
# Description: as §5, §6
# [12] = system: Trichosporon beigelii KCTC 7707; conditions: KCTC 7707, 18 h
# Description: as §5, §6
# [13] = system: Bacillus subtilis KCTC 1998; conditions: KCTC 1998, 18 h
# Description: as §5, §6
# [14] = system: Pseudomonas aeruginosa isolated strain 4007 (tolerance to antibiotics)
# Description: as §5, §6
# [15] = system: Listeria monocytogenes KCTC 3710; conditions: KCTC 3710, 18 h
# Description: as §5, §6
# [16] = system: Escherichia coli ATCC 25922; conditions: ATCC 25922, 18 h
# Description: as §5, §6
# [17] = system: Pseudomonas aeruginosa ATCC 27853; conditions: ATCC 27853, 18 h
# Description: as §5, §6
# [18] = system: Salmonella typhimurium KCTC 1926; conditions: KCTC 1926, 18 h
# Description: as §5, §6
# [19] = system: Escherichia coli CCARM 1229 (tolerance to antibiotics)
# Description: as §5, §6
# [20] = system: Escherichia coli CCARM 1238 (tolerance to antibiotics)
# Description: as §5, §6
# [21] = system: Pseudomonas aeruginosa isolated strain 4891 (tolerance to antibiotics)
# Description: as §5, §6
# [22] = system: human keratinocyte cell line (HaCaT); assay: in vitro; conditions: HaCaT keratinocyte cells, 24 h, 100 µM
# Protocol: as §3, §4
compound,measurement,setting,value
O=C(O)c1cn(C2CC2)c2cc(N3CCNCC3)c(F)cc2c1=O [Ciprofloxacin],Biofilm minimal inhibitory concentration,S. aureus (CCARM 3090),>400 µM
same,Biofilm minimal inhibitory concentration,E. coli (ATCC 25922),2 µM
same,Biofilm minimal inhibitory concentration,E. coli (CCARM 1238),128 µM
same,Biofilm minimal inhibitory concentration,P. aeruginosa 4007,>400 µM
same,Biofilm minimal inhibitory concentration,S. aureus (ATCC 25923),4 µM
same,Biofilm minimal inhibitory concentration,E. coli (CCARM 1229),128 µM
same,Biofilm minimal inhibitory concentration,S. aureus (CCARM 3518),>400 µM
same,Biofilm minimal inhibitory concentration,[1],2 µM
same,Biofilm minimal inhibitory concentration,P. aeruginosa 4891,>400 µM
LNALKKVFQGIHEAIKKI-NH2 [Pse-T3],Binding to DNA,plasmid DNA (pRSETB),showed binding to DNA
same,Membrane damage by SEM,Staphylococcus aureus [2],higher damage and disruption of cell membrane
same,Membrane damage by SEM,Escherichia coli [3],rougher than the cells treated with Pseudin-2
same,Membrane disrupting ability compared with Pseudin-2,Staphylococcus aureus [4],higher membrane disrupting ability than Pseudin-2
same,Membrane disrupting ability compared with Pseudin-2,Escherichia coli [5],higher membrane disrupting ability than Pseudin-2
same,Erythrocyte disrupting ability,[6]; peptide concentration 3.13 μM,0%
same,Erythrocyte disrupting ability,[6]; peptide concentration 6.25 μM,0%
same,Erythrocyte disrupting ability,[6]; peptide concentration 12.5 μM,0%
same,Erythrocyte disrupting ability,[6]; peptide concentration 25 μM,0.5%
same,Erythrocyte disrupting ability,[6]; peptide concentration 50 μM,2.2%
same,Erythrocyte disrupting ability,[6]; peptide concentration 100 μM,5.6%
same,"viability at 24 h, 3.13 µM",[7],100%
same,"viability at 24 h, 6.25 µM",[7],100%
same,"viability at 24 h, 12.5 µM",[7],100%
same,"viability at 24 h, 25 µM",[7],100%
same,"viability at 24 h, 50 µM",[7],100%
same,"viability at 24 h, 100 µM",[7],90.3%
WLNALKKVWQGIHEAIKLIWNWVQ-NH2 [Pse-Anal4],Minimal inhibitory concentration,[8],32 µM
same,Minimal inhibitory concentration,[9],32 µM
same,Minimal inhibitory concentration,[10],32 µM
same,Minimal inhibitory concentration,[11],32 µM
same,Minimal inhibitory concentration,[12],32 µM
same,Minimal inhibitory concentration,[13],32 µM
same,Minimal inhibitory concentration,[14],64 µM
same,Minimal inhibitory concentration,[15],32 µM
same,Minimal inhibitory concentration,[16],16 µM
same,Minimal inhibitory concentration,[17],16 µM
same,Minimal inhibitory concentration,[18],16 µM
same,Minimal inhibitory concentration,[19],32 µM
same,Minimal inhibitory concentration,[20],32 µM
same,Minimal inhibitory concentration,[21],64 µM
same,Cell survival ability,[22],10.8%
same,"viability at 24 h, 3.13 µM",[7]; Cell survival ability,46.1%
same,"viability at 24 h, 6.25 µM",[7]; Cell survival ability,35.1%
same,"viability at 24 h, 12.5 µM",[7]; Cell survival ability,25.4%
same,"viability at 24 h, 25 µM",[7]; Cell survival ability,20.8%
same,"viability at 24 h, 50 µM",[7]; Cell survival ability,15.3%
same,"viability at 24 h, 100 µM",[7]; Cell survival ability,10.1%
